Measured values as given in publication PMC4882237 (Journal of medicinal chemistry, 2016).
Entries after “also recorded” stand apart in the source; their conditions may differ.

Key:
Caco-2 = Caco-2 permeability; type: in vitro ADME; settings: result in words
cytochromes P450 (CYPs) = assay: Inhibition of human cytochromes P450, overall; settings: result in words
[1] = Metabolic stability in human liver microsomes; type: in vitro ADME

- binding to / inhibition of cytochromes P450 (CYPs) (cytochromes P450 (CYPs)): minimal; also recorded: very poor
- half-life in human liver microsomes ([1]; 1 μM concentration): > 1 h
- human microsome CYP metabolism ([1]; for at least 60 min, result in words): little or no
- metabolic stability in human liver microsomes ([1]; result in words): good
Compound: CNCCCc1cncc(CCc2cc(C)cc(N)n2)c1 [Compound 14j, 4-Methyl-6-(2-(5-(3-(methylamino)propyl)pyridin-3-yl)ethyl)pyridin-2-amine]
- Caco-2 permeability (Caco-2): little to no; also recorded: little or no
